Data: PMC11881016, “Deep‐Learning‐Based Approaches for Rational Design of Stapled Peptides With High Antimicrobial Activity and Stability” (Microbial Biotechnology, 2025)
Converted amounts (≈) assume the structure as drawn. Read-outs that look alike come from different tables or passages of the source. *1 amine or outer side, *2 acyl side, *3 side chain or, on linkers, in order; H or OH if unused. Where a SMILES comes first, the peptide text is derived from it. Bridges are numbered along the chain shown (N, C = ends). Where no end group is shown, it is not given here. [ ]: non-standard residue; d: D form. X1 = O=C([C@H](CCCCNCC=[*:3])N[*:1])[*:2]; Octanediyl(1,8) = C(CCCC[*:2])CCC[*:1]; X2 = C(CCCCC[*:2])CCCC[*:1]

Key:
[1] = Serum stability assay (residual antimicrobial activity against E. coli); assay type: in vitro ADME, bovine
Method: The serum stability assay was conducted as described by Li et al. ([2020]) with minor modifications. In brief, each peptide was dissolved in PBS solution containing 25% foetal bovine serum (FBS) at a final concentration of 2048 μg/mL and diluted after incubation for 8 h. E. coli was used as the bacterium for the stability assay, and the bacterial inhibition experiment was performed according to the bacterial inhibitory activity assay. Residual activity was calculated using the following formula: Residual activity=MICbefore/MICafter
• where MICbefore represents the MICs against E. coli before incubation, and MICafter represents the MICs against E. coli after incubation for 8 h.

[2] = system: Pseudomonas aeruginosa (P. aeruginosa, ATCC27853); assay type: cell-based
Method: (§1) Escherichia coli ( E. coli , ATCC25922), Klebsiella pneumoniae ( K. pneumoniae , ATCC10031), Staphylococcus aureus ( S. aureus , ATCC6538P), Pseudomonas aeruginosa ( P. aeruginosa , ATCC27853) and methicillin‐resistant Staphylococcus aureus (MRSA) were used to evaluate the antimicrobial activity of the peptides and were purchased from BeNa Culture Collection.
(§2) The MICs of the peptides in vitro were determined using the broth microdilution method with minor modifications (Wiegand et al. [2008]). Peptides were incubated with bacteria (about 5 × 10^5 CFU/mL), and PBS was used as the negative control. After 18–24 h of incubation at 37°C, the bacteria were checked for growth by recording the values at OD600, with three replicates in each group.

[3] = system: Escherichia coli (E. coli, ATCC25922); assay type: cell-based
Method: as §1, §2

[4] = system: Staphylococcus aureus (S. aureus, ATCC6538P); assay type: cell-based; settings: ATCC6538
Method: as §1, §2

[5] = system: Klebsiella pneumoniae (K. pneumoniae, ATCC10031); assay type: cell-based; settings: for MIC K. pneumoniae: ATCC10031
Method: as §1, §2

any bacteria = assay: Wet experiment result (antimicrobial activity of the synthesised peptides, positive/negative); assay type: cell-based; settings: experiment data set (Supplement S12)
Text: Supplement MBT2-18-e70121-s002.doc, table 9 | column: Wet Exp. Result

[6] = system: methicillin‐resistant Staphylococcus aureus (MRSA); assay type: cell-based; settings: for MIC MRSA: methicillin‐resistant
Method: as §1, §2

[7] = stapled peptide compared to its linear peptide

Molecule	residual antimicrobial activity after incubation in 25% serum (in words) ([1]; 25% foetal bovine serum, 8 h, MIC against E. coli, Figure 7L)	MIC P. aeruginosa [2] [µg/mL]	MIC E. coli [3] [µg/mL]	MIC S. aureus [4] [µg/mL]	MIC K. pneumoniae [5] [µg/mL]	residual antimicrobial activity after incubation in 25% serum (in words) [1]	Wet Exp. Result (any bacteria)	MIC MRSA [6] [µg/mL]	increase of antibacterial activity against MRSA [6, 7] [fold]	increase of antimicrobial activity against K. pneumoniae [5, 7]	decrease of residual antimicrobial activity after incubation in 25% serum [1]
GIGKFLHSAKKFGKAFVGEIMNS [Mag2, magainin II, reference compound]	significantly decreased	–	–	–	–	–	–	–	–	–	–
CC[C@H](C)[C@H](NC(=O)CN)C(=O)NCC(=O)N[C@@H](CCCCN)C(=O)N[C@@H](Cc1ccccc1)C(=O)N[C@@H](CC(C)C)C(=O)N[C@@H](Cc1c[nH]cn1)C(=O)N[C@@H](CO)C(=O)N[C@@H](C)C(=O)N[C@@H](CCCCN)C(=O)N[C@@H](CCCCN)C(=O)N[C@@H](Cc1ccccc1)C(=O)NCC(=O)N[C@@H](CCCCN)C(=O)N[C@@H](C)C(=O)N[C@@H](Cc1ccccc1)C(=O)N[C@H](C(=O)N[C@H]1CSSC[C@@H](C(=O)N[C@@H](CO)C(=O)O)NC(=O)[C@H](CC(C)C)NC(=O)[C@H]([C@@H](C)CC)NC(=O)[C@H](CCC(=O)O)NC1=O)C(C)C [Mag2(i + 4)17Dc] (H-GIGKFLHSAKKFGKAFVCEILCS-OH; disulfide 18-22)	–	64	16	8	16	significantly decreased	–	–	–	–	–
CC[C@H](C)[C@H](NC(=O)CN)C(=O)NCC(=O)N[C@@H](CCCCN)C(=O)N[C@@H](Cc1ccccc1)C(=O)N[C@@H](CC(C)C)C(=O)N[C@@H](Cc1c[nH]cn1)C(=O)N[C@@H](CO)C(=O)N[C@@H](C)C(=O)N[C@@H](CCCCN)C(=O)N[C@@H](CCCCN)C(=O)N[C@H]1CSCCCCCCCCCCSC[C@@H](C(=O)N[C@H](C(=O)N[C@@H](CC(C)C)C(=O)N[C@@H](CC(N)=O)C(=O)N[C@@H](CO)C(=O)O)[C@@H](C)CC)NC(=O)CNC(=O)[C@H](C(C)C)NC(=O)[C@H](Cc2ccccc2)NC(=O)[C@H](C)NC(=O)[C@H](CCCCN)NC(=O)CNC1=O [Mag(i + 7)11St] (H-GIGKFLHSAKKCGKAFVGCILNS-OH; linker 12-19 via X2)	–	32	16	2	8	remained unchanged	Positive	–	–	–	–
CC[C@H](C)[C@H](NC(=O)[C@@H](N)CCCNC(=N)N)C(=O)N[C@@H](CC(C)C)C(=O)N[C@@H](CCCNC(=N)N)C(=O)N[C@@H](CCCCN)C(=O)N[C@@H](CC(C)C)C(=O)N[C@@H](CCCNC(=N)N)C(=O)N[C@H]1CCCCNC/C=C/CNCCCC[C@@H](C(=O)O)NC(=O)[C@H](CC(C)C)NC(=O)[C@H](Cc2ccccc2)NC(=O)[C@H](CCCNC(=N)N)NC1=O [GAN‐P2‐4‐St] (H-RILRKLR[X1]RFL[X1]-OH; staple (E) 8-12)	–	16 (≈ 9.53 µM)	16 (≈ 9.53 µM)	4 (≈ 2.38 µM)	2 (≈ 1.19 µM)	–	Positive	16 (≈ 9.53 µM)	4	2–4 fold	–
CC[C@H](C)[C@H](NC(=O)[C@H](CCC(=O)O)NC(=O)CNC(=O)[C@@H](NC(=O)[C@H](Cc1ccccc1)NC(=O)[C@H](C)NC(=O)[C@H](CCCCN)NC(=O)CNC(=O)[C@H](Cc1ccccc1)NC(=O)[C@H](CCCCN)NC(=O)[C@H](CCCCN)NC(=O)[C@H](C)NC(=O)[C@H](CO)NC(=O)[C@H](Cc1c[nH]cn1)NC(=O)[C@H](CC(C)C)NC(=O)[C@@H]1CSCCCCCCCCSC[C@H](N)C(=O)N[C@@H]([C@@H](C)CC)C(=O)NCC(=O)N[C@@H](CCCCN)C(=O)N1)C(C)C)C(=O)N[C@@H](CC(C)C)C(=O)N[C@@H](CC(N)=O)C(=O)N[C@@H](CO)C(=O)O [Mag(i + 4)0St] (H-CIGKCLHSAKKFGKAFVGEILNS-OH; linker 1-5 via Octanediyl(1,8); N-terminus and C-terminus assumed)	–	32	4	32	16	–	Positive	–	–	–	approximately 50%
CC[C@H](C)[C@H](NC(=O)[C@H](CCCNC(=N)N)NC(=O)[C@H](CCCCN)NC(=O)[C@@H](N)Cc1c[nH]c2ccccc12)C(=O)N[C@@H](C)C(=O)N[C@@H](CCCNC(=N)N)C(=O)N[C@H]1CCCCNC/C=C/CNCCCC[C@@H](C(=O)N[C@@H](CC(C)C)C(=O)NCC(=O)N[C@@H](CCCNC(=N)N)C(=O)N[C@@H](C)C(=O)N[C@@H](CCCCN)C(=O)N[C@@H](CC(C)C)C(=O)N[C@@H](Cc2ccccc2)C(=O)O)NC(=O)[C@H](CCCNC(=N)N)NC(=O)[C@H](CCCCN)NC(=O)[C@H](CC(C)C)NC1=O [VAE‐P3‐5‐St] (H-WKRIAR[X1]LKR[X1]LGRAKLF-OH; staple (E) 7-11)	–	32 (≈ 13.8 µM)	16 (≈ 6.89 µM)	4 (≈ 1.72 µM)	4 (≈ 1.72 µM)	–	Positive	16 (≈ 6.89 µM)	–	–	–
